Results reported in the supplement of paper PMC11061612.

What was measured:
Assay in all cases: Bliss excess, mean over the matrix (fraction); higher = more synergy
LN-405 (Glioblastoma) = system: LN-405 (Glioblastoma)
Procedure, shortened: (§1)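 Cell lines in DMEM/F12 or RPMI with 10% FBS were plated in 1536-well plates, held 24 hours at 37°C, 5% CO2, then given two-drug dose matrices for 72 hours (DMSO typically 0.2%). Viability was read by CellTiter-Glo 2.0 luminescence and scaled as inhibition from 0 (vehicle wells) to 1 (blank wells). Combination Emax is the second-highest inhibition in the matrix; Bliss excess is observed combination effect minus expected EA + EB − EA·EB, EA and EB being single-agent effects.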

[1] = system: CAPAN-2 (Pancreatic Carcinoma)
Procedure, shortened: as §1

[2] = system: BICR22 (Oral Cavity Carcinoma)
Procedure, shortened: as §1

Hs-445 (Non-Cancerous) = system: Hs-445 (Non-Cancerous)
Procedure, shortened: as §1

[3] = system: SK-MG-1 (Low Grade Glioma)
Procedure, shortened: as §1

[4] = system: A549 (Lung Adenocarcinoma)
Procedure, shortened: as §1

[5] = system: NCI-H2141 (Small Cell Lung Carcinoma)
Procedure, shortened: as §1

[6] = system: KARPAS-422 (B-Cell Non-Hodgkin's Lymphoma)
Procedure, shortened: as §1

[7] = system: COLO-824 (Breast Carcinoma)
Procedure, shortened: as §1

[8] = system: NCI-H1666 (Lung Adenocarcinoma)
Procedure, shortened: as §1

[9] = system: NCI-H1650 (Lung Adenocarcinoma)
Procedure, shortened: as §1

[10] = system: SISO (Cervical Carcinoma)
Procedure, shortened: as §1

[11] = system: NCI-H2066 (Squamous Cell Lung Carcinoma)
Procedure, shortened: as §1

[12] = system: A3-KAW (B-Cell Non-Hodgkin's Lymphoma)
Procedure, shortened: as §1

[13] = system: CCK-81 (Colorectal Carcinoma)
Procedure, shortened: as §1

[14] = system: NCI-H1693 (Lung Adenocarcinoma)
Procedure, shortened: as §1

U-2-OS (Osteosarcoma) = system: U-2-OS (Osteosarcoma)
Procedure, shortened: as §1

[15] = system: ECC10 (Gastric Carcinoma)
Procedure, shortened: as §1

[16] = system: JSC-1 (B-Cell Non-Hodgkin's Lymphoma)
Procedure, shortened: as §1

[17] = system: SK-MES-1 (Squamous Cell Lung Carcinoma)
Procedure, shortened: as §1

SMILES	Bliss excess (LN-405 (Glioblastoma))	Bliss excess [1]	Bliss excess [2]	Bliss excess (Hs-445 (Non-Cancerous))	Bliss excess [3]	Bliss excess [4]	Bliss excess [5]	Bliss excess [6]	Bliss excess [7]	Bliss excess [8]	Bliss excess [9]	Bliss excess [10]	Bliss excess [11]	Bliss excess [12]	Bliss excess [13]	Bliss excess [14]	Bliss excess (U-2-OS (Osteosarcoma))	Bliss excess [15]	Bliss excess [16]	Bliss excess [17]
CN(CCO)CC[C@H](CSc1ccccc1)Nc1ccc(S(=O)(=O)NC(=O)c2ccc(N3CCC([C@@H](O)c4ccccc4-c4ccc(Cl)cc4)CC3)cc2)cc1S(=O)(=O)C(F)(F)F [AZD4320] + C1CN(CCC1(C(=O)N[C@@H](CCO)C2=CC=C(C=C2)Cl)N)C3=NC=NC4=C3C=CN4 [Capivasertib] (first compound max 1 µM, 7x7, partner max 3 µM)	-0.0454	-0.0534	0.0051	0.0455	-0.048	-0.0589	-0.027	0.0401	-0.0103	-0.0491	-0.0427	-0.0332	0.0311	-0.0211	-0.0258	-0.0456	-0.0609	-0.0312	-0.0187	-0.0608
CN(CCO)CC[C@H](CSc1ccccc1)Nc1ccc(S(=O)(=O)NC(=O)c2ccc(N3CCC([C@@H](O)c4ccccc4-c4ccc(Cl)cc4)CC3)cc2)cc1S(=O)(=O)C(F)(F)F [AZD4320] + C=CCn1c(=O)c2cnc(Nc3ccc(N4CCN(C)CC4)cc3)nc2n1-c1cccc(C(C)(C)O)n1 [AZD1775] (first compound max 1 µM, partner max 1 µM)	0.0173	0.0665	0.0848	0.165	0.064	-0.0429	0.0423	0.0569	0.0803	-0.0717	-0.0096	-0.0116	-0.0534	0.0279	-0.0198	-0.0047	-0.0059	0.136	-0.0077	0.0356
CN(CCO)CC[C@H](CSc1ccccc1)Nc1ccc(S(=O)(=O)NC(=O)c2ccc(N3CCC([C@@H](O)c4ccccc4-c4ccc(Cl)cc4)CC3)cc2)cc1S(=O)(=O)C(F)(F)F [AZD4320] + CCN(CCO)CCCOc1ccc2c(Nc3cc(CC(=O)Nc4cccc(F)c4)[nH]n3)ncnc2c1 [AZD2811] (first compound max 1 µM, 7x7, partner max 1 µM)	0.014	0.0013	0.0119	0.175	0.0981	-0.149	0.0443	0.14	0.0272	-0.0283	-0.0164	0.0049	-0.0391	0.0628	-0.0345	-0.003	0.0076	0.0193	0.0215	-0.0328
CN(CCO)CC[C@H](CSc1ccccc1)Nc1ccc(S(=O)(=O)NC(=O)c2ccc(N3CCC([C@@H](O)c4ccccc4-c4ccc(Cl)cc4)CC3)cc2)cc1S(=O)(=O)C(F)(F)F [AZD4320] + CN(C)CCCOc1ccc(-c2ccc3ncc4c(c3c2)n(C2CCOCC2)c(=O)n4C)cn1 [AZD0156] (first compound max 1 µM, 7x7, partner max 1 µM)	0.0093	-0.033	-0.0364	-0.0732	-0.0377	-0.039	-0.0151	0.0093	0.0031	-0.0508	-0.0443	-0.0343	-0.092	-0.0197	-0.0009	-0.0226	-0.0215	0.0096	-0.0076	-0.005
CN(CCO)CC[C@H](CSc1ccccc1)Nc1ccc(S(=O)(=O)NC(=O)c2ccc(N3CCC([C@@H](O)c4ccccc4-c4ccc(Cl)cc4)CC3)cc2)cc1S(=O)(=O)C(F)(F)F [AZD4320] + C[C@@H](Nc1cc(F)cc(F)c1)c1cc(C(=O)N(C)C)cc2c(=O)cc(N3CCOCC3)oc12 [AZD8186] (first compound max 1 µM, 7x7, partner max 3 µM)	-0.0504	-0.0099	-0.0108	0.0667	-0.0189	-0.0964	0.0326	0.0234	0.0422	0.0153	0.0346	0.0326	-0.0671	0.0229	0.0755	0.0468	0.007	0.0229	0.0639	0.031
CN(CCO)CC[C@H](CSc1ccccc1)Nc1ccc(S(=O)(=O)NC(=O)c2ccc(N3CCC([C@@H](O)c4ccccc4-c4ccc(Cl)cc4)CC3)cc2)cc1S(=O)(=O)C(F)(F)F [AZD4320] + Cc1cc2ncnn2cc1Nc1ncc2c(n1)n(C1CCOCC1)c(=O)n2C [AZD7648] (first compound max 1 µM, 7x7, partner max 10 µM)	0.0012	-0.0217	-0.0054	0.0079	-0.0239	-0.0263	0.0109	-0.0071	0.006	-0.0352	-0.0227	-0.0328	0.0299	0.0296	-0.0091	-0.0639	-0.0294	0.025	-0.0113	-0.0632
CN(CCO)CC[C@H](CSc1ccccc1)Nc1ccc(S(=O)(=O)NC(=O)c2ccc(N3CCC([C@@H](O)c4ccccc4-c4ccc(Cl)cc4)CC3)cc2)cc1S(=O)(=O)C(F)(F)F [AZD4320] + Cn1cnc2c(F)c(Nc3ccc(Br)cc3Cl)c(C(=O)NOCCO)cc21 [Selumetinib] (first compound max 1 µM, 7x7, partner max 3 µM)	-0.061	0.0819	-0.0468	0.0606	0.102	0.0226	-0.008	-0.0387	-0.0523	0.0676	0.0245	0.0504	0.0432	0.0747	0.133	0.0031	0.0351	0.027	0.0044	0.0282
COc1nnc2ccc(N3CCC(c4ccc(OCCN5CCN(C)C(=O)[C@H]5C)cc4)CC3)nn12 [AZD5153] + C=CCn1c(=O)c2cnc(Nc3ccc(N4CCN(C)CC4)cc3)nc2n1-c1cccc(C(C)(C)O)n1 [AZD1775] (first compound max 1 µM, partner max 1 µM)	-0.042	-0.0202	-0.0972	-0.192	-0.0823	-0.0902	-0.021	-0.108	-0.0551	-0.0944	-0.015	-0.0346	-0.0503	-0.0093	-0.0558	-0.0888	-0.0304	-0.0116	-0.123	0.0183
COc1nnc2ccc(N3CCC(c4ccc(OCCN5CCN(C)C(=O)[C@H]5C)cc4)CC3)nn12 [AZD5153] + CC1(C)CCC(CN2CCN(c3ccc(C(=O)NS(=O)(=O)c4ccc(NCC5CCOCC5)c([N+](=O)[O-])c4)c(Oc4cnc5[nH]ccc5c4)c3)CC2)=C(c2ccc(Cl)cc2)C1 [Venetoclax] (first compound max 1 µM, 7x7, partner max 1 µM)	-0.0861	-0.0149	-0.0613	0.0178	-0.0571	-0.0659	0.0085	-0.032	-0.0176	-0.0603	-0.0349	-0.0335	-0.0919	-0.0095	-0.054	-0.0464	-0.0424	0.0248	-0.0724	-0.0349
COc1nnc2ccc(N3CCC(c4ccc(OCCN5CCN(C)C(=O)[C@H]5C)cc4)CC3)nn12 [AZD5153] + CCN(CCO)CCCOc1ccc2c(Nc3cc(CC(=O)Nc4cccc(F)c4)[nH]n3)ncnc2c1 [AZD2811] (first compound max 1 µM, 7x7, partner max 1 µM)	-0.0761	-0.0286	-0.118	-0.0783	-0.0568	-0.0407	0.0226	-0.0472	-0.0422	-0.0376	-0.0868	0.0112	-0.0352	0.0269	-0.0361	-0.098	-0.0044	-0.103	0.0038	-0.0546
COc1nnc2ccc(N3CCC(c4ccc(OCCN5CCN(C)C(=O)[C@H]5C)cc4)CC3)nn12 [AZD5153] + C[C@@H]1COCCN1C2=NC(=NC(=C2)C3(CC3)[S@](=N)(=O)C)C4=C5C=CNC5=NC=C4 [AZD6738] (first compound max 1 µM, 7x7, partner max 10 µM)	-0.0235	0.0047	-0.116	-0.0475	-0.0065	-0.0292	0.043	-0.0759	0.0541	-0.0271	0.0238	0.008	-0.0454	-0.006	0.0184	-0.0383	0.0409	0.0654	-0.067	0.0093
COc1nnc2ccc(N3CCC(c4ccc(OCCN5CCN(C)C(=O)[C@H]5C)cc4)CC3)nn12 [AZD5153] + Cc1c2c(nn1C)CSCc1cc(n(C)n1)CSc1cc(c3ccccc3c1)OCCCc1c(C(=O)O)n(C)c3c-2c(Cl)ccc13 [AZD5991] (first compound max 1 µM, 7x7, partner max 1 µM)	-0.0084	-0.0078	-0.0013	-0.0723	-0.0383	-0.0918	0.0096	-0.0432	-0.0584	-0.0538	-0.0082	0.0698	-0.0569	-0.0289	-0.0485	-0.0418	0.0074	0.0743	-0.0542	-0.0084
COc1nnc2ccc(N3CCC(c4ccc(OCCN5CCN(C)C(=O)[C@H]5C)cc4)CC3)nn12 [AZD5153] + Cn1cnc2c(F)c(Nc3ccc(Br)cc3Cl)c(C(=O)NOCCO)cc21 [Selumetinib] (first compound max 1 µM, 7x7, partner max 10 µM)	-0.0171	0.0202	0.0497	-0.0232	-0.0443	-0.0703	-0.0277	-0.0311	0.007	-0.0631	-0.0155	-0.008	-0.0123	0.0182	0.0649	0.0093	-0.0291	0.0419	-0.0165	-0.0219
